For assay [1], the system named is NCI-H3122 xenograft. Nature of the assay: Mouse Xenograft Model, monotherapy (NCI-H3122). Format: in vivo. As to conditions: Female Harlan Nude mice, NCI-H3122 s.c., 50 mg/kg once daily peroral for 17 days. As to the method: Female Harlan Nude mice were transplanted s.c. with human NSCLC NCI-H3122 cells to determine the in-vivo anti-tumour activity of GLS inhibitors. 5×10^6 cells in 50% matrigel (BD Bioscience) were injected s.c. on the left flank of the animals. Animals were randomised into groups of 10-15 when tumours reached a volume of ˜200-300 mm^3 and treatment commenced. […] Tumours were measured twice weekly by calliper and volume of tumours calculated using elliptical formula (π/6×width×width×length). Statistical significance was evaluated using a one tailed, t-test. Example 2 was formulated in a 1% Polysorbate 80 and pH adjusted with 1M HCL to a final pH concentration of pH3.5. Data is presented as mean tumour volume with calculated mean standard error bars.

Assay [2] concerns NCI-H1703 xenograft. Nature of the assay: Mouse Xenograft Model, combination therapy (NCI-H1703). Type of assay: in vivo. As to conditions: Male Scid mice, NCI-H1703 s.c. As to the method:
Male Scid mice were transplanted s.c. with human NSCLC NCI-H1703 cells (ATCC-CRL-5889) to determine the in-vivo anti-tumour activity of GLS inhibitors. 1×10^7 cells in 50% matrigel (BD Bioscience) were injected s.c. on the left flank of the animals.
Animals were randomised into groups of 10-12 when tumours reached a volume of ˜200-300 mm^3 and treatment commenced. […] Tumours were measured twice weekly by calliper and volume of tumours calculated using elliptical formula (π/6×width×width×length). Statistical significance was evaluated using a one tailed, t-test. Taxotere® (Sanofi) was formulated in a physiological saline. Example 2 was formulated in a 1% Polysorbate 80 and pH adjusted with 1M HCL to a final pH concentration of pH3.5. Data is presented as mean tumour volume with calculated mean standard error bars.

The subject of assay [3] is NCI-H1703 cells. Nature of the assay: GLS Cell Proliferation Assay (NCI-H1703). Type of assay: cell-based, human. As to conditions: Homo sapiens, 120 h; NCI-H1703 cells, 5 days incubation; geometric mean where repeated; read-out: Assay c) GLS Cell Proliferation Assay.
The target of assay [4] is cellular GLS activity (Homo sapiens (Human), UniProt O94925). Nature of the assay: GLS Cell Potency Assay (PC3 coupled assay measuring cellular glutamate depletion). Type of assay: cell-based. As to conditions: PC3 cells, 6 h incubation, cellular glutamate depletion; geometric mean where repeated; read-out: Assay b) GLS Cell Potency Assay IC50. The source says: The following assays were used to measure the effects of the compounds of the present invention: a) GLS Enzyme Potency Assay; b) GLS Cell Potency Assay; c) GLS Cell Proliferation Assay; and d) Mouse Xenograft Model. During the description of the assays, generally: • i. The following abbreviations have been used: CO2=Carbon dioxide; DMEM=Dulbecco's Modified Eagle Medium; DMSO=Dimethyl sulphoxide; EDTA=Ethylenediaminetetraacetic acid; EGTA=Ethylene glycol tetraacetic acid; FCS=Foetal calf serum; h=Hour(s); NBS=Non-binding surface; SDS=Sodium dodecyl sulphate; r.t.=room temperature; TRIS=Tris(Hydroxymethyl)aminomethane. • ii. […]
Sequence of cellular GLS activity (O94925 55-669): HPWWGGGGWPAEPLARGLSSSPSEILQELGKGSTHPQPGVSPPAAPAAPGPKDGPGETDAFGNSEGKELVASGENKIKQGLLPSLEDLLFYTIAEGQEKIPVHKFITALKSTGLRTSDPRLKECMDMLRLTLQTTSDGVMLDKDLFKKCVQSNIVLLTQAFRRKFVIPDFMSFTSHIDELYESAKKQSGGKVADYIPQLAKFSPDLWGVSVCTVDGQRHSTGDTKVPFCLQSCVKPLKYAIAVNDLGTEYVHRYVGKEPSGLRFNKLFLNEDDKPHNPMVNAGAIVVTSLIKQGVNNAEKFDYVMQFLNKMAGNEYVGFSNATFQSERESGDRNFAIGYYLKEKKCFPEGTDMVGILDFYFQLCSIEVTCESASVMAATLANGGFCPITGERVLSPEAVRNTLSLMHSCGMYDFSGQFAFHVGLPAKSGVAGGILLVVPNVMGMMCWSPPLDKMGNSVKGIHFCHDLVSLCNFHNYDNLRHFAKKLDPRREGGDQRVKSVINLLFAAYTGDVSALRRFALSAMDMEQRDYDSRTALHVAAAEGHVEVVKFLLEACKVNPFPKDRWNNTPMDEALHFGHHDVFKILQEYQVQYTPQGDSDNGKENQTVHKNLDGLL
Compounds were assessed for their potential to inhibit cellular GLS activity by use of a PC3 coupled assay measuring cellular glutamate depletion. […] DMSO concentration was maintained at 0.3% by back filling with DMSO solution. PC3 cells were grown in phenol free DMEM, 10% dialyzed FCS, 2 mM glutamine and following dispersal by trypsinisation were plated at 5.6×10^3 cells per well in 40 μl of growth medium directly into the 384 well assay plates containing dispensed compound. After incubation for 6 h at 37° C., 5% CO2 growth media was aspirated and cells lysed in 15 μl of buffer containing 10 mM TRIS pH7.4, 100 mM NaCl, 1 mM EDTA, 1 mM EGTA, 1 mM NaF, 20 mM Na4P2O7, 2 mM Na3VO4, 1% Triton X-100, 10% glycerol, 0.1% SDS and 0.5% deoxycholate.

Assay [5] has as its target GLS1 (Homo sapiens (Human), UniProt O94925). The assay can be described thus: GLS Enzyme Potency Assay (Glutamate Oxidase/AmplexRed coupled assay). Type of assay: biochemical. As to conditions: 6His tagged GLS protein (amino acids 63-669); geometric mean where repeated. The text has this:
The following assays were used to measure the effects of the compounds of the present invention: a) GLS Enzyme Potency Assay; b) GLS Cell Potency Assay; c) GLS Cell Proliferation Assay; and d) Mouse Xenograft Model. During the description of the assays, generally: • i. The following abbreviations have been used: CO2=Carbon dioxide; DMEM=Dulbecco's Modified Eagle Medium; DMSO=Dimethyl sulphoxide; EDTA=Ethylenediaminetetraacetic acid; EGTA=Ethylene glycol tetraacetic acid; FCS=Foetal calf serum; h=Hour(s); NBS=Non-binding surface; SDS=Sodium dodecyl sulphate; r.t.=room temperature; TRIS=Tris(Hydroxymethyl)aminomethane. • ii. IC50 values were calculated using a smart fitting model in Genedata. […] Assay a): GLS Enzyme Potency Assay
A Glutamate Oxidase/AmplexRed coupled assay was used to measure the ability of compounds to bind to and inhibit the activity of GLS1 in vitro. […] GLS1 was diluted to 2× working concentration and incubated at r.t. to allow the tetrameric/dimeric forms to reach steady state. Assay measurements were performed in buffer comprising 50 mM TRIS pH 7.8, 100 mM NaPO4, pH 7.8, 0.001% v/v Tween20. […] DMSO concentration was maintained at 2% by back filling with DMSO solution. […] 3 μL of 100 mM glutamine diluted in assay buffer was then added and the reaction incubated at r.t. for 60 minutes. […] An artefact version of the assay where the 6His tagged GLS protein and glutamine were replaced with assay buffer was also used to rule out non specific effects on the assay components.

Here are results for eight compounds from patent US10040788B2, “1,3,4-thiadiazole compounds and their use in treating cancer” (AstraZeneca AB, priority 2014, dated 2018).

The structures appear in SMILES notation.

Sequence of GLS1 (O94925 63-669): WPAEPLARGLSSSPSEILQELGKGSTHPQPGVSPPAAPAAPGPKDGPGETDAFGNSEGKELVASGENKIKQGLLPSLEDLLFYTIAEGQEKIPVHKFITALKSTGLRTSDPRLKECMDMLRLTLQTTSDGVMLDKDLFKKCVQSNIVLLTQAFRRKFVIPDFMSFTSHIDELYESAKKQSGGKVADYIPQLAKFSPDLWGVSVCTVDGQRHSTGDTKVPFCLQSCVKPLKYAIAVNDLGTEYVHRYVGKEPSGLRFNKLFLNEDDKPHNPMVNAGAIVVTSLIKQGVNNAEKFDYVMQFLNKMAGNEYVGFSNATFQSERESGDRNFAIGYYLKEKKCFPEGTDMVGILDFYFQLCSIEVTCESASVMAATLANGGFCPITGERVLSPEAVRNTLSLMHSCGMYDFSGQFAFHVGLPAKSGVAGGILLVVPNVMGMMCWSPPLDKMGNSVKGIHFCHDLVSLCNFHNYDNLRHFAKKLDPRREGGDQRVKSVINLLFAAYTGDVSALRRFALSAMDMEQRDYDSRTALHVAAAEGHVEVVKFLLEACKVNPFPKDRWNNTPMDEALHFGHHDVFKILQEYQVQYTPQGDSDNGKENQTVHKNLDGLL

Regarding `CO[C@H](C(=O)Nc1nnc(N[C@@H]2CCN(c3cccnn3)C2)s1)c1ccccc1` [Example 2(a), (2S)-2-Methoxy-2-phenyl-N-[5-[[(3R)-1-pyridazin-3-ylpyrrolidin-3-yl]amino]-1,3,4-thiadiazol-2-yl]acetamide], the “Tumour growth (mean tumour volume), FIG. 2” value in assay [1] was “inhibition of growth in-vivo”. For the same compound, the “Tumour growth (mean tumour volume), FIG. 3” value in assay [2] (100 mg/kg once daily peroral for 16 days in combination with once weekly i.v. Taxotere, compared to Taxotere monotherapy) was “slight regression”; in assay [2] (100 mg/kg once daily peroral for 16 days, monotherapy), “inhibition of growth in-vivo”. Moreover, in assay [3], the IC50 worked out at 4.85 nM.

Consider `CCO[C@H](C(=O)Nc1nnc(N[C@@H]2CCN(c3nccnn3)C2)s1)c1ccc(F)c(OC)c1` [33(a), (2S)-2-ethoxy-2-(4-fluoro-3-methoxy-phenyl)-N-[5-[[(3R)-1-(1,2,4-triazin-3-yl)pyrrolidin-3-yl]amino]-1,3,4-thiadiazol-2-yl]acetamide], for which the figures for the IC50 in assay [4], in assay [3] and in assay [5] were 7.13 nM, 168 nM and 50.2 nM, respectively.

On to `COc1ccc([C@H](OC)C(=O)Nc2nnc(N[C@@H]3CCN(c4cccnn4)C3)s2)cc1OC` [25(a), (2S)-2-(3,4-dimethoxyphenyl)-2-methoxy-N-[5-[[(3R)-1-pyridazin-3-ylpyrrolidin-3-yl]amino]-1,3,4-thiadiazol-2-yl]acetamide], for which the values for the IC50 in assay [4], in assay [3] and in assay [5] were 1.81 nM, 68.5 nM and 35.4 nM, respectively.

As for `COc1cccc([C@@H](OC)C(=O)Nc2nnc(N[C@@H]3CCN(c4cncnn4)C3)s2)c1` [21(b), (2R)-2-methoxy-2-(3-methoxyphenyl)-N-[5-[[(3R)-1-(1,2,4-triazin-6-yl)pyrrolidin-3-yl]amino]-1,3,4-thiadiazol-2-yl]acetamide], the IC50 in assay [4] was found to be 0.35 nM; in assay [3] it was 1.78 nM; in assay [5] it was 46.9 nM.

As to `CCO[C@H](C(=O)Nc1nnc(N[C@@H]2CCN(c3nccnn3)C2)s1)c1ccc(OC)cc1` [29(a), (2S)-2-ethoxy-2-(4-methoxyphenyl)-N-[5-[[(3R)-1-(1,2,4-triazin-3-yl)pyrrolidin-3-yl]amino]-1,3,4-thiadiazol-2-yl]acetamide], the figures for the IC50 in assay [4], in assay [3] and in assay [5] were 5.42 nM, 125 nM and 108 nM, respectively.

For `COc1cc([C@@H](OC)C(=O)Nc2nnc(N[C@@H]3CCN(c4cccnn4)C3)s2)ccc1F` [Example 14(b), (2R)-2-(4-Fluoro-3-methoxy-phenyl)-2-methoxy-N-[5-[[(3R)-1-pyridazin-3-ylpyrrolidin-3-yl]amino]-1,3,4-thiadiazol-2-yl]acetamide], the IC50 in assay [4] amounted to 65 nM; in assay [3], 518 nM; in assay [5], 168 nM.

As to `CCO[C@H](C(=O)Nc1nnc(N[C@@H]2CCN(c3cccnn3)C2)s1)c1ccc(F)cc1` [Example 13(a), (2S)-2-Ethoxy-2-(4-fluorophenyl)-N-[5-[[(3R)-1-pyridazin-3-ylpyrrolidin-3-yl]amino]-1,3,4-thiadiazol-2-yl]acetamide], the IC50 in assay [4] was 0.96 nM; in assay [3], 18.3 nM; in assay [5] it was 27 nM.

Turning to `CCO[C@@H](C(=O)Nc1nnc(N[C@@H]2CCN(c3nccnn3)C2)s1)c1cccc(OC)c1` [27(b), (2R)-2-ethoxy-2-(3-methoxyphenyl)-N-[5-[[(3R)-1-(1,2,4-triazin-3-yl)pyrrolidin-3-yl]amino]-1,3,4-thiadiazol-2-yl]acetamide], the IC50 in assay [4] is 19.5 nM; in assay [3], 337 nM; in assay [5], 844 nM.
